From PubChem BioAssay AID179 (DTP/NCI, 2004)
Calls of active or inactive are those of the source.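 How the source made its calls: active means compounds giving half or more protection of infected cells from virus-caused growth loss, again on retest; inactive means the rest.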

Tested on: CEM cells HIV-1 protection, formazan growth assay
Assay: NCI AIDS Antiviral Assay
Conditions: for IC50: measured here: growth of uninfected CEM cells
In short: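 Category rules: moderately active means at least 50% protection on retest, and confirmed active means 100% protection reproducibly. The underlying data came from a formazan growth assay in HIV-1-infected CEM cells.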

## FC(F)(F)C12C34C=CC5(CCC6(C=CC1(CC3)O6)C52C(F)(F)F)O4 (centres undefined)
  outcome: inactive

## O=C(c1ccccc1)C(Nc1nc2nc(-c3ccccc3)c(-c3ccccc3)n2[nH]1)c1ccccc1 (centres undefined)
  EC50: > 200 µM
  IC50: 27.5 µM

## N/C(=N\NS(=O)(=O)c1ccccc1)C(F)(F)F
  EC50: > 200 µM
  IC50: 107 µM

## COc1cccc(-c2nccc3c(OCc4ccccc4)c(OC)c(OC)cc23)c1
  outcome: inactive

## Cc1ccc(OCC2OC(n3cnc4nc(Cl)nc(Cl)c43)CC2Oc2ccc(C)cc2)cc1 (centres undefined)
  EC50: > 200 µM
  IC50: 1.48 µM

## Nc1ccc(OCC(O)N2C(=O)c3ccccc3C2=O)cc1 (centres undefined)
  EC50: > 200 µM
  IC50: > 200 µM

## Cn1cc(NC(=O)Nc2cc(C(=O)Nc3cc(C(=O)Nc4ccc(S(=O)(=O)O)c5cc(S(=O)(=O)O)cc(S(=O)(=O)O)c45)n(C)c3)n(C)c2)cc1C(=O)Nc1cc(C(=O)Nc2ccc(S(=O)(=O)O)c3cc(S(=O)(=O)O)cc(S(=O)(=O)O)c23)n(C)c1
  outcome: active

## O=C(CCCC1Cc2ccccc2C1=O)c1ccccc1 (centres undefined)
  EC50: > 200 µM
  IC50: 91.2 µM

## C/C(CC(C)C)=N/Nc1nc(C)cc(=O)[nH]1
  EC50: > 200 µM
  IC50: > 200 µM

## O=C(Nc1ccccc1C(=O)NCc1ccccc1)/C(=C/c1ccccc1O)NC(=O)c1ccccc1
  outcome: inactive

## CCCCN(C)CC(C(C)=O)C(c1ccccc1)c1c(O)c2ccccc2oc1=O (centres undefined)
  EC50: > 67.6 µM
  IC50: 60.3 µM

## CN=C(NN)NS(=O)(=O)c1cc(C)c(Cl)cc1S
  outcome: inactive

## Cc1ccc2c(c1)[nH]c(=S)n2C=C1C(=O)NC(=O)NC1=O
  EC50: > 100 µM
  IC50: > 100 µM

## CCOC(=O)c1[nH]n(-c2ccccc2)c(=O)c1/C=N/C(=S)Nc1c(CC)cccc1CC
  EC50: > 100 µM
  IC50: 24.5 µM

## COC(=O)C[C@](O)(CCC(C)(C)O)C(=O)O[C@@H]1C(OC)=C[C@]23CCCN2CCc2cc4c(cc2[C@H]13)OCO4
  outcome: inactive

## O=[N+]([O-])/C=C/c1cc2ccccc2[nH]1
  EC50: > 200 µM
  IC50: 6.31 µM

## C=C(C)[C@@]1(O[Si](C)(C)C)CCCC[C@@H]1CC(Sc1ccccc1)Sc1ccccc1
  EC50: > 200 µM
  IC50: 11.5 µM

## Cc1cc2n(n1)C(C)(C)C(=O)Nc1ccc(Cl)cc1-2
  EC50: > 49 µM
  IC50: 33.9 µM

## COc1cc2c3c(c1OC)-c1ccccc1C(C(O)c1ccccc1)C3N(C)CC2 (centres undefined)
  outcome: inactive

## Cc1cc2c(cc1C)NC(=O)C(NC(=O)/C=C/c1ccccc1)C=N2 (centres undefined)
  EC50: > 56.2 µM
  IC50: 38.9 µM

## CC1(C)OC2OC(C(O)CO)C(OC(=S)SSC(=S)OC3C(C(O)CO)OC4OC(C)(C)OC43)C2O1 (centres undefined)
  EC50: > 200 µM
  IC50: 36.3 µM

## CC(=O)N1N=C(C)C2ON=C(c3ccc(Cl)cc3)P21 (centres undefined)
  outcome: inactive

## C[C@@H]1c2ccc3c(c2C2(O)C[C@H]4CCC1N2C4)CC1[C@H]3CC(=O)C2C[C@@H](O)CC[C@@]21C (some centres undefined)
  EC50: > 155 µM
  IC50: > 155 µM

## COc1nc(NC2OC(CO)C(O)C(O)C2O)cc(=O)n1C (centres undefined)
  outcome: inactive

## C/C=C1\C=[N+]([O-])C2CC1C(C(=O)OC)C13C[C@@H](OC)OC21Nc1ccccc13 (some centres undefined)
  outcome: inactive

## CCOC(=O)C(NC(=O)CC(C)C)(NC(C)C)C(F)(F)F (centres undefined)
  EC50: > 200 µM
  IC50: > 200 µM

## O=C(c1ccccc1)N1CCc2c([nH]c3ccccc23)C1
  outcome: inactive

## O=[N+]([O-])c1ccc(OCc2nnc(CCCCCCCCc3nnc(COc4ccc([N+](=O)[O-])cc4)o3)o2)cc1
  EC50: > 200 µM
  IC50: > 200 µM

## CCC1(c2ccc(OC)c(OC)c2)CCN(S(=O)(=O)c2ccc(C)cc2)C1 (centres undefined)
  EC50: > 200 µM
  IC50: > 200 µM

## O=[N+]([O-])c1ccc2nc(-c3ccccn3)c(-c3ccccn3)nc2c1
  EC50: > 200 µM
  IC50: > 200 µM

## COc1cc(Nc2nc3ccc(C(F)(F)F)cc3nc2C(=O)O)cc(OC)c1OC
  EC50: > 200 µM
  IC50: 27.5 µM

## CCOC(=O)/C(=C\c1ccc(F)cc1)C(C)=O
  EC50: > 398 µM
  IC50: 79.4 µM

## CCCCCOC(=S)SSSC(=S)OCCCCC
  EC50: > 200 µM
  IC50: 7.76 µM

## Cn1c(N)c(Br)c(=O)n(C)c1=O
  EC50: > 200 µM
  IC50: > 200 µM

## O=C(NCCc1ccccc1)[C@H]1CCCC[C@@H]1CCO
  EC50: > 200 µM
  IC50: > 200 µM

## CC(C)OC(=O)C(NC(=O)C(CC(=O)OCc1ccccc1)NC(=O)OCc1ccccc1)NC(=O)C1C(C)(C)CCC1(C)C (centres undefined)
  EC50: > 200 µM
  IC50: 12.6 µM

## COc1cc(C(=O)C/C(CCC(=O)Nc2ccc(Cl)cc2C)=N/NC(=O)C(N)=O)ccc1O
  outcome: inactive

## CCN(CCCCOC(=O)c1ccc(OC)c(OC)c1)C(C)Cc1ccc(OC)cc1 (centres undefined)
  EC50: > 200 µM
  IC50: 102 µM

## O=C(CC(C(=O)c1ccsc1)c1ccccc1)c1cccs1 (centres undefined)
  EC50: > 200 µM
  IC50: 39.8 µM

## O=C1Nc2ccccc2C12CCNC2Cc1ccccc1 (centres undefined)
  EC50: > 794 µM
  IC50: 263 µM

## Cc1ccc(S(=O)(=O)OCC23CCC(C2)C2CC23)cc1 (centres undefined)
  EC50: > 100 µM
  IC50: > 100 µM

## COC(=O)[C@H](Cc1c[nH]c2ccccc12)NP(=O)(O)CCC1OC(n2cc(C)c(=O)[nH]c2=O)CC1N=[N+]=[N-] (some centres undefined)
  EC50: > 200 µM
  IC50: > 200 µM

## COc1ccc(C2=Nn3c(nc4sc(-c5ccccc5)cc4c3=O)SC2)cc1
  EC50: > 200 µM
  IC50: > 200 µM
